Results: ChEMBL document CHEMBL4000248, “Synthesis and biological evaluation of cyclic imides incorporating benzenesulfonamide moieties as carbonic anhydrase I, II, IV and IX inhibitors” (Bioorg Med Chem, 2017)

Biological target: Carbonic anhydrase 9 (Homo sapiens, UniProt Q16790)
Test: Inhibition of recombinant human carbonic anhydrase 9 incubated for 10 mins prior to testing by stopped flow CO2 hydrase assay

Row | Structure (SMILES) | Ki [nM]
1 | NS(=O)(=O)c1ccc(CCN2C(=O)CCC2=O)cc1 | 296
2 | NS(=O)(=O)c1ccc(CCN2C(=O)c3c(Br)c(Br)c(Br)c(Br)c3C2=O)cc1 | 2390
3 | NS(=O)(=O)c1ccc(CCN2C(=O)c3ccc([N+](=O)[O-])cc3C2=O)cc1 | 1640
4 | CC(C)(C)c1ccc2c(c1)C(=O)N(CCc1ccc(S(N)(=O)=O)cc1)C2=O | 459
5 | NS(=O)(=O)c1ccc(CCN2C(=O)c3cc(Cl)c(Cl)cc3C2=O)cc1 | 428
6 | NS(=O)(=O)c1ccc(N2C(=O)C3C(C2=O)C2(Cl)C(Cl)=C(Cl)C3(Cl)C2(Cl)Cl)cc1 (centres undefined) | 13.7
7 | NS(=O)(=O)c1ccc(CCN2C(=O)[C@H]3CC=CC[C@H]3C2=O)cc1 | 296
8 | NS(=O)(=O)c1ccc(CN2C(=O)C3C(C2=O)C2(Cl)C(Cl)=C(Cl)C3(Cl)C2(Cl)Cl)cc1 (centres undefined) | 16.9
9 | NS(=O)(=O)c1ccc(CCN2C(=O)c3cccc([N+](=O)[O-])c3C2=O)cc1 | 2670
10 | NS(=O)(=O)c1ccc(CCN2C(=O)c3nccnc3C2=O)cc1 | 4190
11 | Cc1ccc2c(c1)C(=O)N(CCc1ccc(S(N)(=O)=O)cc1)C2=O | 390
12 | NS(=O)(=O)c1ccc(CCN2C(=O)C=CC2=O)cc1 | 274
13 | NS(=O)(=O)c1ccc(CCN2C(=O)c3ccccc3C2=O)cc1 | 296
14 | NS(=O)(=O)c1ccc(CCN2C(=O)C3C(C2=O)C2(Cl)C(Cl)=C(Cl)C3(Cl)C2(Cl)Cl)cc1 (centres undefined) | 114
